Assay type in all cases: in vivo
One assay has as its system Phaedon cochleariae. Briefly: Phaedon cochleariae spray test (PHAECO S), cabbage leaves. The following applies: Phaedon cochleariae, 168 h, 7 dat, read-out: % efficacy. As to the method: [table] To produce an appropriate active ingredient formulation, 1 part by weight of active ingredient is dissolved with the specified parts by weight of solvent and made up with water containing an emulsifier concentration of 1000 ppm until the desired concentration is attained. To produce further test concentrations, the mixture is diluted with emulsifier-containing water. If addition of ammonium salts or/and penetrants is required, these are each added to the preparation solution in a concentration of 1000 ppm. Cabbage leaves (Brassica oleracea) are sprayed with an active ingredient formulation of the desired concentration and populated with larvae of the mustard beetle (Phaedon cochleariae). After the desired time, the kill in % is determined. 100% means that all beetle larvae have been killed; 0% means that no beetle larvae have been killed.

The test system of a further assay is Tetranychus urticae. Kind of assay: Tetranychus urticae spray test, OP-resistant (TETRUR). In outline: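 Bean leaf discs infested with all stages of OP-resistant Tetranychus urticae were sprayed with compound formulated in solvent and water containing 1000 ppm emulsifier. Efficacy was scored after 6 days as % mites killed (100% = all killed).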
For the next assay, the system named is Aphis gossypii. Briefly: Aphis gossypii spray test (APHIGO), cotton plants. The following applies: Aphis gossypii, 144 h, 4 ppm, 6 dat, read-out: % efficacy. In outline: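 Cotton plants (Gossypium hirsutum) heavily infested with cotton aphids were sprayed with the active ingredient formulated in emulsifier-containing water (1000 ppm emulsifier), with ammonium salt or penetrant added at 1000 ppm where required. After the set time, percent kill was determined, where 100% means all aphids dead.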

For assay [1], the system named is Myzus persicae. Kind of assay: Myzus persicae drench test (MYZUPE D), savoy cabbage plants. To be noted: soil, 240 h, 0.16 ppm, 10 dat, read-out: % efficacy. As to the method: [table] To produce an appropriate active ingredient formulation, 1 part by weight of active ingredient is mixed with the specified amounts of solvent and emulsifier and the concentrate is diluted to the desired concentration with water, it being necessary to take into account the volume of soil into which drenching is effected. It should be ensured that a concentration of 40 ppm of emulsifier in the soil is not exceeded. For production of further test concentrations, the mixture is diluted with water. Savoy cabbage plants (Brassica oleracea) in soil pots, infested by all stages of the green peach aphid (Myzus persicae), are drenched with an active ingredient formulation of the desired concentration. After the desired time, the efficacy in % is determined. 100% means that all the aphids have been killed; 0% means that no aphids have been killed.

The test system of a further assay is Ctenocephalides felis. Briefly: Ctenocephalides felis in vitro contact test with adult cat fleas. The following applies: 5 μg/cm^2 (=500 g/ha), after 48 h. As to the method: For the coating of the test tubes, 9 mg of active ingredient are first dissolved in 1 ml of acetone p.a. and then diluted to the desired concentration with acetone p.a. 250 μl of the solution are distributed homogeneously on the inner walls and the base of a 25 ml glass tube by turning and rocking on an orbital shaker (rocking rotation at 30 rpm for 2 h). With 900 ppm of active ingredient solution and internal surface area 44.7 cm^2, given homogeneous distribution, an area-based dose of 5 μg/cm^2 is achieved. After the solvent has evaporated off, the tubes are populated with 5-10 adult cat fleas (Ctenocephalides felis), sealed with a perforated plastic lid and incubated in a horizontal position at room temperature and ambient humidity. After 48 h, efficacy is determined. To this end, the tubes are stood upright and the fleas are knocked to the base of the tube. Fleas which remain motionless at the base or move in an uncoordinated manner are considered to be dead or moribund. […] 100% efficacy means that all the fleas were dead or moribund. 0% efficacy means that no fleas were harmed.

Assay [2] has as its system Myzus persicae. Briefly: Myzus persicae spray test (MYZUPE S), bell pepper plants. To be noted: 144 h, 6 dat, read-out: % efficacy. In outline: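 Infested bell pepper plants (Capsicum annuum) sprayed with active ingredient in emulsifier-containing water (1000 ppm emulsifier; ammonium salts/penetrants at 1000 ppm if required). Kill scored in % after the chosen time; 100% = all aphids dead, 0% = none.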

A further assay relates to Nilaparvata lugens. Briefly: Nilaparvata lugens spray test (NILALU). To be noted: Nilaparvata lugens, 96 h, 4 g/ha, 4 dat, read-out: % efficacy. The method, boiled down: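 Rice plants (Oryza sativa) sprayed with compound formulated in solvent and water with 1000 ppm emulsifier, ammonium salts/penetrants at 1000 ppm if needed, then infested with brown planthopper larvae. After the set time, efficacy scored as % planthoppers killed (100% all, 0% none).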

The subject of the next assay is Musca domestica. Kind of assay: Musca domestica test. The following applies: 100 ppm, adult houseflies, after 2 days. The method, then:
Solvent: dimethyl sulfoxide To produce a suitable active ingredient formulation, 10 mg of active ingredient are mixed with 0.5 ml of dimethyl sulfoxide, and the concentrate is diluted with water to the desired concentration. Vessels containing a sponge treated with sugar solution and the active ingredient formulation of the desired concentration are populated with 10 adult houseflies (Musca domestica). After 2 days, the kill in % is determined. 100% means that all of the flies have been killed; 0% means that none of the flies have been killed.

Where [3] appears, read: Tetranychus urticae, 144 h, TETRUR, 6 dat, read-out: % efficacy.

Here are results for 4 compounds from patent publication US11089783B2, “2-(het)aryl-substituted fused heterocycle derivatives as pesticides” (Bayer Aktiengesellschaft, priority 2017, dated 2021).

For `CCS(=O)(=O)c1ccc(NC(=O)NC)nc1-c1nc2cc(C(F)(F)C(F)(F)F)nnc2n1C` [Example I-08, 1-{5-(ethylsulfonyl)-6-[7-methyl-3-(pentafluoroethyl)-7H-imidazo[4,5-c]pyridazin-6-yl]pyridin-2-yl}-3-methylurea], the figures for the Emax at 4 ppm in the assay on Phaedon cochleariae (4 ppm) and in the assay with Aphis gossypii were 70% and 95%, respectively. Further, in the assay on Phaedon cochleariae, the Emax at 20 ppm came out at 90%. This compound also showed an efficacy in the assay on Tetranychus urticae (4 g/ha, after 6 days) of 90%. The Emax at 20 g/ha in the assay with Tetranychus urticae (Tetranychus urticae, 144 h, TETRUR, 20 g/ha, 6 dat, read-out: % efficacy) turned out to be 70%. The Emax at 100 g/ha in the assay on Tetranychus urticae (setting [3]) is 70%.
As to `CCS(=O)(=O)c1ccc(N(C)C(=O)NC)nc1-c1nc2cc(C(F)(F)C(F)(F)F)nnc2n1C` [Example I-09], the Emax at 0.16 ppm amounted to 99% in the assay with Myzus persicae [1] and 80% in the assay with Myzus persicae [2] (0.16 ppm). This compound also showed an efficacy with Ctenocephalides felis of 100%. In the assay on Myzus persicae [2] (0.8 ppm), the Emax at 0.8 ppm was found to be 100%. Besides, the Emax at 100 g/ha in the assay on Tetranychus urticae (setting [3]) stood at 70%.
Turning to `CCS(=O)(=O)c1ccc(NC(=O)N(C)C)nc1-c1nc2cc(C(F)(F)C(F)(F)F)nnc2n1C` [Example I-10], the Emax at 4 g/ha in the assay on Nilaparvata lugens was found to be 90%. This compound also showed an efficacy in the assay on Ctenocephalides felis of 100%. In addition, the Emax at 20 ppm with Phaedon cochleariae was found to be 80%. Also, the “efficacy (kill)” value with Musca domestica is listed as 90%. Further, the Emax at 100 g/ha with Tetranychus urticae (setting [3]) was 70%. Also, the Emax at 4 ppm in the assay with Aphis gossypii was found to be 75%.
In the assay with Ctenocephalides felis, `CCNC(=O)Nc1ccc(S(=O)(=O)CC)c(-c2nc3cc(C(F)(F)C(F)(F)F)nnc3n2C)n1` [Example I-13] registered an efficacy of 100%. Besides, the “efficacy (kill)” value in the assay with Musca domestica is 80%.
